Tests used:
[1] = test system: PRC2-mediated histone H3 methylation; experiment: Tri-Methyl Histone H3 (Lys 27) Sandwich ELISA in Pfeiffer cells: inhibition of PRC2-mediated histone H3 methylation; assay type: cell-based, human; conditions: Homo sapiens; Inhibition of EZH2-mediated histone H3 trimethylation; Pfeiffer cells (EZH2 A677G), 96 hours incubation
How it was run: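 Pfeiffer DLBCL cells (EZH2 A677G mutant) treated with 3-fold serial dilutions, 1µM to 0.15 nM final, for 96 hours at 37°C. Acid (0.4M HCl) histone extracts, neutralized, assayed by H3K27me3 sandwich ELISA with HRP/TMB read at 450 nm.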

[2] = target: purified human, His-tagged PRC2 complex (Homo sapiens, UniProt O75530+Q15910); experiment: Hot Spot HMT assay: inhibition of PRC2 enzymatic activity (transfer of tritiated methyl from SAM to core histone, filter binding); assay type: biochemical; conditions: Inhibition of PRC2-mediated enzymatic activity; 10 nM PRC2 complex, 0.05 mg/ml core histone H3, 1 uM 3H-SAM, 1 hr at 30°C
purified human, His-tagged PRC2 complex, sequence (Q15910 whole entry): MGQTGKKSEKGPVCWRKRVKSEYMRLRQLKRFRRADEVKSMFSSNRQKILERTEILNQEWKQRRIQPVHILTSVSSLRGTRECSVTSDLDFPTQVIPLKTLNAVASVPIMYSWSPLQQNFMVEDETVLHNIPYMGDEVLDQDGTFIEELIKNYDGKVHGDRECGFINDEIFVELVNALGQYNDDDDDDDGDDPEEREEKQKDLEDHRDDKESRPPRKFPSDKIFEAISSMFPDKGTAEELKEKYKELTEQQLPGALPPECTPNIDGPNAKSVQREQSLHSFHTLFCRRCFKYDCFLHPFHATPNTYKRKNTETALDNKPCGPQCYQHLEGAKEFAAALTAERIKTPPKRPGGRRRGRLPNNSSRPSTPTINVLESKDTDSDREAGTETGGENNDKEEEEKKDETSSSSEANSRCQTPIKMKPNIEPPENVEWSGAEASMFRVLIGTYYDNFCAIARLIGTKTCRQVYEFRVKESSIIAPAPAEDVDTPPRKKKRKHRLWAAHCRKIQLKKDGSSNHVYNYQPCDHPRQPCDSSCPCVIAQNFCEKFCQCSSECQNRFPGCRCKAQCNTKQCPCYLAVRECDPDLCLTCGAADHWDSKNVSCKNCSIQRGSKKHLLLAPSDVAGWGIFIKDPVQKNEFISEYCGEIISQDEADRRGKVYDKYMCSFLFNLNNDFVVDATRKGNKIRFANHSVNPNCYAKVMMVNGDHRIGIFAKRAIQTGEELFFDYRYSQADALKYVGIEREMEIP
purified human, His-tagged PRC2 complex, sequence (O75530 whole entry): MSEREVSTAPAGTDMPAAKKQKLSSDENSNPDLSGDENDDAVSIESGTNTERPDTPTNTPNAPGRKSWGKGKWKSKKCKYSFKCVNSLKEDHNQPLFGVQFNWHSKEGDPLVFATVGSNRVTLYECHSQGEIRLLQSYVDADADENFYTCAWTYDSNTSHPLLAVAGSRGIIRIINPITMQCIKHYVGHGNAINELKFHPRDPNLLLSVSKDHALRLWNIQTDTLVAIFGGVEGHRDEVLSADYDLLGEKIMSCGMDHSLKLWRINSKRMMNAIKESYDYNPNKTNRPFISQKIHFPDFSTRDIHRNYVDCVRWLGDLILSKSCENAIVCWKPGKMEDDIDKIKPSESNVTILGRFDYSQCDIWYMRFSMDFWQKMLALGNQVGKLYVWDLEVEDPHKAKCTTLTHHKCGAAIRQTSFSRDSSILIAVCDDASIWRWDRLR
purified human, His-tagged PRC2 complex, sequence (Q15022 whole entry partner): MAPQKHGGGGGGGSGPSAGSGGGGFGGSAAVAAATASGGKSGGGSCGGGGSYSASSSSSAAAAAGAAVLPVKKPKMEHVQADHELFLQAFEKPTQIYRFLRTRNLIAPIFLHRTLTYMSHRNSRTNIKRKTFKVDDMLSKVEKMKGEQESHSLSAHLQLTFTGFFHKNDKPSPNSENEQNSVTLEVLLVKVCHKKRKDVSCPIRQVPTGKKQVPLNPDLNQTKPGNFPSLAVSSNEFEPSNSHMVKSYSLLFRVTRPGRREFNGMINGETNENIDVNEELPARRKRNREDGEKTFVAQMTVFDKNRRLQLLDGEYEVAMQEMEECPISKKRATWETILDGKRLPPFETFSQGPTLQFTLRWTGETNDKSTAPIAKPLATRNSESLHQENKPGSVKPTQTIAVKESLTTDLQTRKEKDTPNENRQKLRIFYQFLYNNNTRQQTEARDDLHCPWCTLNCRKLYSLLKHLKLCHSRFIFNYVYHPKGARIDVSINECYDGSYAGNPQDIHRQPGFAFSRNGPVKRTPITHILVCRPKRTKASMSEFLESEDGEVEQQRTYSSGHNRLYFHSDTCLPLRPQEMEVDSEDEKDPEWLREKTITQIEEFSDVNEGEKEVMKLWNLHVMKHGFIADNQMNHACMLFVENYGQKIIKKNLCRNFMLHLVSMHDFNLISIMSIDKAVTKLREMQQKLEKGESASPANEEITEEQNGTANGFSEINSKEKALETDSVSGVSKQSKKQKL
purified human, His-tagged PRC2 complex, sequence (Q6ZN18 whole entry partner): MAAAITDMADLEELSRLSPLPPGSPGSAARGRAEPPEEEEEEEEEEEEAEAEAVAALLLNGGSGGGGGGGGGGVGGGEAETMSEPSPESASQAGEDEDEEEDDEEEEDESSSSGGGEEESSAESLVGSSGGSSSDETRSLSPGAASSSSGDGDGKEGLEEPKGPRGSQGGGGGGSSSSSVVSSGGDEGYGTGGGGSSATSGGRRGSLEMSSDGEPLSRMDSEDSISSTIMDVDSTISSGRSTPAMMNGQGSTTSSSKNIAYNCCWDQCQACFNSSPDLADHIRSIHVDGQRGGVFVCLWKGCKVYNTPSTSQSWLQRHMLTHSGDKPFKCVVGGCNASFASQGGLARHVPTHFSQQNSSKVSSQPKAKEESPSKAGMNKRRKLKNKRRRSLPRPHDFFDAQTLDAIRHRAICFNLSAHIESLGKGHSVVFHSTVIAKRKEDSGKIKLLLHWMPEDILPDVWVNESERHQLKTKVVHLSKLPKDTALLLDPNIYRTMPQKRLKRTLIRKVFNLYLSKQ
purified human, His-tagged PRC2 complex, sequence (Q09028 whole entry partner): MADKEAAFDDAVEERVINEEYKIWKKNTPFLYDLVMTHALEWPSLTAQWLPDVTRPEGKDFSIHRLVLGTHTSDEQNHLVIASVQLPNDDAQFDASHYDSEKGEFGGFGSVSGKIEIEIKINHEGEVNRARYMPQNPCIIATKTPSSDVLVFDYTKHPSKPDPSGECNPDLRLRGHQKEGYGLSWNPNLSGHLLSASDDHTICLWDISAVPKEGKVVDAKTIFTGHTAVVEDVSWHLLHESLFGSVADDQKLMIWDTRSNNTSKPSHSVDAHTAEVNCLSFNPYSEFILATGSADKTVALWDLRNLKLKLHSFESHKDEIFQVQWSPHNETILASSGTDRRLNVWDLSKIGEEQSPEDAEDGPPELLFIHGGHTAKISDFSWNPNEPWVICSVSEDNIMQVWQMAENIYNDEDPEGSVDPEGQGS
How it was run: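 Five-subunit complex (His-EZH2, Flag-EED, His-SUZ12, His-AEBP2, His-RbAp48) at 10 nM with 0.05 mg/ml core histone H3, pH 8 Tris buffer, 1% DMSO; 20 min compound pre-incubation at 30°C. Started with 1 uM [3H]-SAM, 1 hr at 30°C; tritiated H3 counted by scintillation. Compounds diluted from 1.0 µM top concentration.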

[3] = test system: Karpas 422 cells; experiment: Karpas 422 cell viability, CTG (Cell Titre Glo) assay; assay type: cell-based, human; conditions: Homo sapiens; Inhibition of proliferation of Karpas 422 cells (EZH2 Y641N); viability measured Day 4, Day 7 or Day 11, time point of the tabulated values not stated
How it was run: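 Karpas 422 cells (EZH2 Y641N, DLBCL) plated at 1000 cells/well in RPMI with 20% FBS, exposed to compound 10µM down to 1.5nM in 3-fold steps at 37 °C. Viability by CellTiter-Glo on Days 4, 7 and 11; Day 11 plates re-fed with fresh medium and compound on Day 7. IC50 per time point.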

IC50 [1] | IC50 [2] | IC50 [3] | Compound
≤ 100 nM | < 100 nM | ≤ 250 nM | CNCc1ccc(-c2cnc(NCc3c(F)ccc4c3CCO4)n3cc(C#N)nc23)cc1 [Example 185, 5-(((5-fluoro-2,3-dihydrobenzofuran-4-yl)methyl)amino)-8-(4-((methylamino)methyl)phenyl)imidazo[1,2-c]pyrimidine-2-carbonitrile]
> 500 nM | < 100 nM | > 500 nM | N#Cc1cn2c(NCc3c(F)ccc4c3CCO4)ncc(-c3cccc(C(=O)O)c3)c2n1 [Example 174, 3-(2-cyano-5-(((5-fluoro-2,3-dihydrobenzofuran-4-yl)methyl)amino)imidazo[1,2-c]pyrimidin-8-yl)benzoic acid]
100 to 500 nM | 100 to 500 nM | ≤ 250 nM | Cn1nccc(-c2cnc(NCc3c(F)ccc4c3CCO4)n3cc(C#N)nc23)c1=O [Example 194, 5-(((5-fluoro-2,3-dihydrobenzofuran-4-yl)methyl)amino)-8-(2-methyl-3-oxo-2,3-dihydropyridazin-4-yl)imidazo[1,2-c]pyrimidine-2-carbonitrile]
≤ 100 nM | < 100 nM | ≤ 250 nM | [2H]C([2H])(c1ccc(-c2cnc(NCc3c(F)ccc4c3CCO4)n3cc(C#N)nc23)c(C)c1)N(C)C [Example 173, 8-(4-((dimethylamino)methyl-d2)-2-methylphenyl)-5-(((5-fluoro-2,3-dihydrobenzofuran-4-yl)methyl)amino)imidazo[1,2-c]pyrimidine-2-carbonitrile]
> 500 nM | 100 to 500 nM | > 500 nM | N#Cc1cn2c(NCc3c(F)ccc4c3CCO4)ncc(C3CC3)c2n1 [Example 77, 8-cyclopropyl-5-(((5-fluoro-2,3-dihydrobenzofuran-4-yl)methyl)amino)imidazo[1,2-c]pyrimidine-2-carbonitrile]
> 500 nM | 100 to 500 nM | 250 to 500 nM | N#Cc1cn2c(NCc3c(F)ccc4c3CCO4)ncc(-c3ccc(S(=O)(=O)C(F)(F)F)cc3)c2n1 [Example 82, 5-(((5-fluoro-2,3-dihydrobenzofuran-4-yl)methyl)amino)-8-(4-((trifluoromethyl)sulfonyl)phenyl)imidazo[1,2-c]pyrimidine-2-carbonitrile]
100 to 500 nM | < 100 nM | ≤ 250 nM | Cc1ncc(-c2cnc(NCc3c(F)ccc4c3CCO4)n3cc(C#N)nc23)c(C)n1 [Example 71, 8-(2,4-dimethylpyrimidin-5-yl)-5-(((5-fluoro-2,3-dihydrobenzofuran-4-yl)methyl)amino)imidazo[1,2-c]pyrimidine-2-carbonitrile]
≤ 100 nM | < 100 nM | ≤ 250 nM | Cn1nc(C#N)cc1-c1cnc(NCc2c(F)ccc3c2CCO3)n2cc(C#N)nc12 [Example 212, 8-(3-cyano-1-methyl-1H-pyrazol-5-yl)-5-(((5-fluoro-2,3-dihydrobenzofuran-4-yl)methyl)amino)imidazo[1,2-c]pyrimidine-2-carbonitrile]
> 500 nM | 100 to 500 nM | ≤ 250 nM | COC(=O)c1ccc(-c2cnc(NCc3c(F)ccc4c3CCO4)n3cc(C#N)nc23)cc1 [Example 167, methyl 4-(2-cyano-5-(((5-fluoro-2,3-dihydrobenzofuran-4-yl)methyl)amino)imidazo[1,2-c]pyrimidin-8-yl)benzoate]
100 to 500 nM | < 100 nM | 250 to 500 nM | N#Cc1cn2c(NCc3c(F)ccc4c3CCO4)ncc(-c3ccc4c(c3)CCNC4=O)c2n1 [Example 172, 5-(((5-fluoro-2,3-dihydrobenzofuran-4-yl)methyl)amino)-8-(1-oxo-1,2,3,4-tetrahydroisoquinolin-6-yl)imidazo[1,2-c]pyrimidine-2-carbonitrile]
≤ 100 nM | 100 to 500 nM | ≤ 250 nM | N#Cc1cn2c(NCc3c(F)ccc4c3CCO4)ncc(-c3ccc(C4CCCN4)cc3)c2n1 (stereo not drawn) [Example 204, 5-(((5-fluoro-2,3-dihydrobenzofuran-4-yl)methyl)amino)-8-(4-(pyrrolidin-2-yl)phenyl)imidazo[1,2-c]pyrimidine-2-carbonitrile]
≤ 100 nM | 100 to 500 nM | ≤ 250 nM | N#Cc1cn2c(NCc3c(F)ccc4c3CCO4)ncc(-c3ccc4c(c3)CNC4)c2n1 [Example 205, 5-(((5-fluoro-2,3-dihydrobenzofuran-4-yl)methyl)amino)-8-(isoindolin-5-yl)imidazo[1,2-c]pyrimidine-2-carbonitrile]
> 500 nM | > 500 nM | > 500 nM | Cc1cc(-c2cnc(NCc3c(F)ccc4sccc34)n3cc(C#N)nc23)n(C)n1 [Example 81, 8-(1,3-dimethyl-1H-pyrazol-5-yl)-5-(((5-fluorobenzo[b]thiophen-4-yl)methyl)amino)imidazo[1,2-c]pyrimidine-2-carbonitrile]
≤ 100 nM | < 100 nM | ≤ 250 nM | [2H]C([2H])([2H])N(Cc1ccc(-c2cnc(NCc3c(F)ccc4c3CCO4)n3cc(C#N)nc23)c(C)c1)C([2H])([2H])[2H] [Example 202, 8-(4-((bis(methyl-d3)amino)methyl)-2-methylphenyl)-5-(((5-fluoro-2,3-dlhydrobenzofuran-4-yl)methyl)amino)imidazo[1,2-c]pyrimidine-2-carbonitrile]
≤ 100 nM | < 100 nM | ≤ 250 nM | CN(C)C(=O)c1ccc(-c2cnc(NCc3c(F)ccc4c3CCO4)n3cc(C#N)nc23)c(Cl)c1 [Example 31, 3-chloro-4-(2-cyano-5-(((5-fluoro-2,3-dihydrobenzofuran-4-yl)methyl)amino)imidazo[1,2-c]pyrimidin-8-yl)-N,N-dimethylbenzamide]
≤ 100 nM | < 100 nM | ≤ 250 nM | CN1CCCC1c1ccc(-c2cnc(NCc3c(F)ccc4c3CCO4)n3cc(C#N)nc23)cc1 (stereo not drawn) [Example 160, 5-(((5-fluoro-2,3-dihydrobenzofuran-4-yl)methyl)amino)-8-(4-(1-methylpyrrolidin-2-yl)phenyl)imidazo[1,2-c]pyrimidine-2-carbonitrile]
100 to 500 nM | < 100 nM | ≤ 250 nM | CC(c1ccc(-c2cnc(NCc3c(F)ccc4c3CCO4)n3cc(C#N)nc23)cc1)N(C)C (stereo not drawn) [Example 199, 8-(4-(1-(dimethylamino)ethyl)phenyl)-5-(((5-fluoro-2,3-dihydrobenzofuran-4-yl)methyl)amino)imidazo[1,2-c]pyrimidine-2-carbonitrile]
100 to 500 nM | < 100 nM | ≤ 250 nM | N#Cc1cn2c(NCc3c(F)ccc4c3CCO4)ncc(-c3ccc(CN4CCCC4=O)cc3)c2n1 [Example 49, 5-(((5-fluoro-2,3-dihydrobenzofuran-4-yl)methyl)amino)-8-(4-((2-oxopyrrolidin-1-yl)methyl)phenyl)imidazo[1,2-c]pyrimidine-2-carbonitrile]
100 to 500 nM | 100 to 500 nM | ≤ 250 nM | CNCc1ccc(-c2cnc(NCc3c(F)ccc4c3CCO4)n3cc(C#N)nc23)c(C)c1 [Example 196, 5-(((5-fluoro-2,3-dihydrobenzofuran-4-yl)methyl)amino)-8-(2-methyl-4-((methylamino)methyl)phenyl)imidazo[1,2-c]pyrimidine-2-carbonitrile]
100 to 500 nM | < 100 nM | ≤ 250 nM | Cc1ncc(-c2cnc(NCc3c(F)ccc4c3CCO4)n3cc(C#N)nc23)cn1 [Example 69, 5-(((5-fluoro-2,3-dihydrobenzofuran-4-yl)methyl)amino)-8-(2-methylpyrimidin-5-yl)imidazo[1,2-c]pyrimidine-2-carbonitrile]
100 to 500 nM | 100 to 500 nM | ≤ 250 nM | Cc1cc(-c2cnc(NCc3c(F)ccc4c3CCO4)n3cc(C#N)nc23)ccc1CN(C)C [Example 200, 8-(4-((dimethylamino)methyl)-3-methylphenyl)-5-(((5-fluoro-2,3-dihydrobenzofuran-4-yl)methyl)amino)imidazo[1,2-c]pyrimidine-2-carbonitrile]
≤ 100 nM | < 100 nM | ≤ 250 nM | CN(C)C(=O)c1cc(F)c(-c2cnc(NCc3c(F)ccc4c3CCO4)n3cc(C#N)nc23)cc1F [Example 38, 4-(2-cyano-5-(((5-fluoro-2,3-dihydrobenzofuran-4-yl)methyl)amino)imidazo[1,2-c]pyrimidin-8-yl)-2,5-difluoro-N,N-dimethylbenzamide]
100 to 500 nM | < 100 nM | ≤ 250 nM | CN(C)C1(c2ccc(-c3cnc(NCc4c(F)ccc5c4CCO5)n4cc(C#N)nc34)cc2)CC1 [Example 171, 8-(4-(1-(dimethylamino)cyclopropyl)phenyl)-5-(((5-fluoro-2,3-dihydrobenzofuran-4-yl)methyl)amino)imidazo[1,2-c]pyrimidine-2-carbonitrile]
100 to 500 nM | 100 to 500 nM | ≤ 250 nM | N#Cc1cn2c(NCc3c(F)ccc4c3CCO4)ncc(-c3ccc([C@H]4CCCN4)cc3)c2n1 [Example 220, (R)-5-(((5-fluoro-2,3-dihydrobenzofuran-4-yl)methyl)amino)-8-(4-(pyrrolidin-2-yl)phenyl)imidazo[1,2-c]pyrimidine-2-carbonitrile]
